Experimental data: the supplement of paper PMC10307832

Columns and labels:
Experiment in all cases: relative viability (nuclei count vs DMSO), 5 days (fraction); higher = more cells survive
Selumetinib + Navitoclax = compound: Cn1cnc2c(F)c(Nc3ccc(Br)cc3Cl)c(C(=O)NOCCO)cc21 [Selumetinib] + CC1(C)CCC(c2ccc(Cl)cc2)=C(CN2CCN(c3ccc(C(=O)NS(=O)(=O)c4ccc(N[C@H](CCN5CCOCC5)CSc5ccccc5)c(S(=O)(=O)C(F)(F)F)c4)cc3)CC2)C1 [Navitoclax] (partner 0.5 µM)
Summary of the method: (§1)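 Medians of duplicate plates are given as relative viability. That measure is the nuclei count in treated wells divided by the count in vehicle wells. Counts were taken on 4× images of lung cancer cell lines in 1536-well plates, 5 days after pin-tool dosing the day after seeding with one drug alone or a fixed anchor-drug dose plus five library-drug doses (not always all listed) in √10 steps.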

Venetoclax + Vorinostat = compound: CC1(C)CCC(CN2CCN(c3ccc(C(=O)NS(=O)(=O)c4ccc(NCC5CCOCC5)c([N+](=O)[O-])c4)c(Oc4cnc5[nH]ccc5c4)c3)CC2)=C(c2ccc(Cl)cc2)C1 [Venetoclax] + O=C(CCCCCCC(=O)Nc1ccccc1)NO [Vorinostat] (partner 1 µM)
Summary of the method: as §1

Selumetinib + Trametinib = compound: Cn1cnc2c(F)c(Nc3ccc(Br)cc3Cl)c(C(=O)NOCCO)cc21 [Selumetinib] + CC(=O)Nc1cccc(-n2c(=O)n(C3CC3)c(=O)c3c(Nc4ccc(I)cc4F)n(C)c(=O)c(C)c32)c1 [Trametinib] (partner 0.02 µM)
Summary of the method: as §1

Venetoclax + Foretinib = compound: CC1(C)CCC(CN2CCN(c3ccc(C(=O)NS(=O)(=O)c4ccc(NCC5CCOCC5)c([N+](=O)[O-])c4)c(Oc4cnc5[nH]ccc5c4)c3)CC2)=C(c2ccc(Cl)cc2)C1 [Venetoclax] + COc1cc2c(Oc3ccc(NC(=O)C4(C(=O)Nc5ccc(F)cc5)CC4)cc3F)ccnc2cc1OCCCN1CCOCC1 [Foretinib] (partner 0.25 µM)
Summary of the method: as §1

Cell Line | relative viability (Selumetinib + Navitoclax; first compound 0.02 µM) | relative viability (Selumetinib + Navitoclax; first compound 0.06325 µM) | relative viability (Selumetinib + Navitoclax; first compound 0.2 µM) | relative viability (Selumetinib + Navitoclax; first compound 0.6325 µM) | relative viability (Venetoclax + Vorinostat; first compound 0.01 µM) | relative viability (Venetoclax + Vorinostat; first compound 0.03162 µM) | relative viability (Venetoclax + Vorinostat; first compound 0.1 µM) | relative viability (Venetoclax + Vorinostat; first compound 0.3162 µM) | relative viability (Venetoclax + Vorinostat; first compound 1 µM) | relative viability (Selumetinib + Trametinib; first compound 0.02 µM) | relative viability (Selumetinib + Trametinib; first compound 0.06325 µM) | relative viability (Selumetinib + Trametinib; first compound 0.2 µM) | relative viability (Selumetinib + Trametinib; first compound 0.6325 µM) | relative viability (Venetoclax + Foretinib; first compound 0.01 µM) | relative viability (Venetoclax + Foretinib; first compound 0.03162 µM) | relative viability (Venetoclax + Foretinib; first compound 0.1 µM) | relative viability (Venetoclax + Foretinib; first compound 0.3162 µM) | relative viability (Venetoclax + Foretinib; first compound 1 µM)
LCLC-97TM1 | 0.497 | 0.606 | 0.368 | 0.309 | 0.453 | 0.892 | 0.443 | 0.635 | 0.667 | 0.195 | 0.171 | 0.201 | 0.19 | 0.913 | 1.03 | 0.918 | 0.981 | 0.782
LK-2 | 0.88 | 0.896 | 0.838 | 1.06 | 0.214 | 0.38 | 0.304 | 0.278 | 0.248 | 0.834 | 0.753 | 0.844 | 0.69 | 1.15 | 1.34 | 1.27 | 1.18 | 0.891
LOU-NH91 | 0.631 | 0.607 | 0.514 | 0.556 | 0.868 | 1.05 | 0.916 | 1.03 | 0.874 | 0.773 | 0.761 | 0.818 | 0.824 | 0.895 | 0.969 | 0.97 | 0.94 | 0.911
LU99A | 0.856 | 0.816 | 0.928 | 0.563 | 0.595 | 0.703 | 0.416 | 0.521 | 0.552 | 0.505 | 0.649 | 0.512 | 0.481 | 0.821 | 0.854 | 0.78 | 0.747 | 0.825
LXF-289 | 0.913 | 0.894 | 0.754 | 0.754 | 0.885 | 0.791 | 0.746 | 0.751 | 0.734 | 0.717 | 0.616 | 0.673 | 0.701 | 1.05 | 0.975 | 0.991 | 0.941 | 0.913
NCI-H23 | 0.851 | 0.827 | 0.672 | 0.63 | 0.565 | 0.752 | 0.54 | 0.619 | 0.521 | 0.4 | 0.402 | 0.322 | 0.331 | 0.949 | 0.945 | 1.01 | 1.07 | 0.993
NCI-H322M | 1.14 | 0.795 | 1.05 | 1.04 | 0.982 | 1 | 0.818 | 0.996 | 0.903 | 0.458 | 0.508 | 0.496 | 0.512 | 0.939 | 1 | 0.915 | 0.972 | 1.05
NCI-H441 | 0.959 | 0.574 | 0.839 | 0.546 | 0.78 | 0.762 | 1.02 | 0.868 | 0.743 | 0.457 | 0.429 | 0.573 | 0.455 | 0.903 | 0.962 | 0.966 | 0.97 | 0.686
NCI-H460 | 1.18 | 0.916 | 0.86 | 0.578 | 0.602 | 0.684 | 0.653 | 0.739 | 0.6 | 0.115 | 0.139 | 0.138 | 0.104 | 0.978 | 0.941 | 0.791 | 0.997 | 0.951
NCI-H520 | 1.08 | 1.1 | 1.12 | 1.07 | 0.761 | 0.75 | – | 0.668 | 0.733 | 0.826 | 0.677 | 0.749 | 0.776 | 0.628 | 0.708 | 0.711 | 0.949 | 0.727
NCI-H596 | 0.906 | 0.845 | 0.677 | 0.415 | 0.649 | 0.626 | 0.587 | 0.568 | 0.714 | 0.743 | 0.881 | 0.741 | 0.607 | 0.77 | 0.877 | 1 | 0.956 | 0.743
NCI-H647 | 1.26 | 0.935 | 0.874 | 0.959 | 0.451 | 0.629 | 0.529 | 0.528 | 0.465 | 0.478 | 0.391 | 0.405 | 0.484 | 1.08 | 1.26 | 1.13 | 1.18 | 1.11
NCI-H727 | 0.237 | 0.184 | 0.119 | 0.103 | 1.04 | 1.4 | 1.08 | 1.12 | 1.11 | 0.348 | 0.367 | 0.421 | 0.381 | 1.16 | 0.719 | 0.834 | 1.08 | 0.884
NCI-H838 | 1.01 | 0.965 | 0.963 | 0.88 | 0.699 | 0.72 | 0.709 | 0.769 | 0.719 | 0.482 | 0.52 | 0.529 | 0.524 | 1.05 | 1.04 | 1.06 | 1.05 | 0.961
NCI-H1355 | 0.893 | 0.932 | 0.776 | 0.513 | 0.626 | 0.618 | 0.625 | 0.692 | 0.577 | 0.407 | 0.459 | 0.464 | 0.416 | 0.967 | 1.05 | 1.05 | 1.02 | 0.978
NCI-H1395 | 1.08 | 1.13 | 1.22 | 1.28 | 0.7 | 0.838 | 0.673 | 0.907 | 0.896 | 1.09 | 0.964 | 0.932 | 1.05 | 1.06 | 1.01 | 1.04 | 1.07 | 0.996
NCI-H1437 | 1.07 | 0.856 | 0.75 | 0.487 | 0.8 | 0.888 | 0.808 | 0.709 | 0.788 | 0.558 | 0.546 | 0.516 | 0.528 | 1.28 | 1.24 | 1.25 | 1.26 | 1.15
NCI-H1650 | 1 | 0.893 | 0.904 | 1.01 | 0.618 | 0.606 | 0.567 | 0.553 | 0.527 | 0.522 | 0.458 | 0.531 | 0.577 | 1.12 | 1.11 | 1.13 | 1.2 | 1.07
NCI-H1651 | 1.1 | 0.941 | 0.887 | 0.846 | 0.566 | 0.585 | 0.577 | 0.497 | 0.599 | 0.854 | 0.85 | 0.835 | 0.87 | 0.876 | 0.787 | 0.834 | 0.823 | 0.808
NCI-H1666 | 0.773 | 0.582 | 0.592 | 0.479 | 0.997 | 1.05 | 1.07 | 1.02 | 1.07 | 0.867 | 0.854 | 0.807 | 0.845 | 0.889 | 0.946 | 0.904 | 0.915 | 0.943
NCI-H1734 | 0.862 | 0.818 | 0.87 | 0.679 | 0.613 | 0.876 | 0.711 | 0.761 | 0.76 | 0.708 | 0.73 | 0.707 | 0.723 | 0.88 | 0.871 | 0.794 | 0.823 | 0.878
NCI-H1755 | 1.03 | 0.986 | 0.961 | 0.948 | 0.751 | 0.801 | 0.774 | 0.739 | 0.741 | 0.78 | 0.753 | 0.778 | 0.752 | 0.905 | 0.893 | 0.951 | 0.882 | 0.899
NCI-H1793 | 0.478 | 0.304 | 0.311 | 0.281 | 0.685 | 0.958 | 0.703 | 0.801 | 0.623 | 0.424 | 0.414 | 0.443 | 0.436 | 0.769 | 0.71 | 0.619 | 0.79 | 0.607
NCI-H1915 | 0.714 | 0.792 | 0.795 | 0.498 | 0.49 | 0.533 | 0.478 | 0.54 | 0.512 | 0.311 | 0.302 | 0.288 | 0.257 | 1.08 | 1.01 | 1.06 | 1.01 | 1.01
NCI-H1944 | 0.97 | 0.945 | 0.756 | 0.779 | 0.606 | 0.586 | 0.442 | 0.608 | 0.498 | 0.442 | 0.398 | 0.406 | 0.389 | 1.06 | 0.904 | 0.847 | 0.911 | 0.912
NCI-H1975 | 1.23 | 1.22 | 1.01 | 0.728 | 0.692 | 0.678 | 0.743 | 0.688 | 0.72 | 0.332 | 0.34 | 0.37 | 0.31 | 0.936 | 1.02 | 0.89 | 0.942 | 0.929
NCI-H1993 | 0.801 | 0.79 | 0.749 | 0.648 | 0.747 | 1 | 0.714 | 0.728 | 0.615 | 0.624 | 0.604 | 0.527 | 0.528 | 0.786 | 0.859 | 0.863 | 0.783 | 0.686
NCI-H2009 | 1.07 | 0.935 | 0.673 | 0.554 | 0.746 | 0.729 | 0.758 | 0.714 | 0.681 | 0.285 | 0.273 | 0.29 | 0.257 | 1.22 | 1.25 | 1.1 | 1.19 | 1.13
NCI-H2023 | 0.937 | 0.924 | 0.959 | 0.783 | 0.749 | 0.708 | 0.73 | 0.631 | 0.587 | 0.51 | 0.467 | 0.535 | 0.51 | 0.813 | 0.924 | 1.14 | 0.84 | 0.653
